Results published in publication PMC3930563, “Mycobacterium tuberculosis Exploits Asparagine to Assimilate Nitrogen and Resist Acid Stress during Infection” (PLoS Pathogens, 2014).

Target: AnsA (Rv1538c), recombinant AnsA-HIS6 (Mycobacterium tuberculosis, UniProt P9WPX5)
Sequence (P9WPX5 whole entry): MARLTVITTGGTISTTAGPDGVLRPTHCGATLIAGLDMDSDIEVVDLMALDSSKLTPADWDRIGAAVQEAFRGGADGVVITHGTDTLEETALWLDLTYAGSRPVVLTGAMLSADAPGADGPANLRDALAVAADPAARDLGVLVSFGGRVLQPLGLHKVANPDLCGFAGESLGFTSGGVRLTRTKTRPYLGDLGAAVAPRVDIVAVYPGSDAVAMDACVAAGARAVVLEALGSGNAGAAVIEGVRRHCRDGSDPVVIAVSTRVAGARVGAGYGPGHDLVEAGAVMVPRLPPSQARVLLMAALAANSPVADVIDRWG

NC(=O)C[C@H](N)C(=O)O [Asn, asparagine]
coupled glutamate dehydrogenase assay, NADPH disappearance at 340 nm: revealed that AnsA mediates asparagine hydrolysis (Fig. 1E)
